Here are results for six compounds from US11746116B2, “Antibiotic resistance breakers” (KING'S COLLEGE LONDON, priority 2017, dated 2023).

In brackets after ≈: the same amount, converted by molar mass. Like-named read-outs stand apart in the source and are kept apart here.

Common to all, as to experiment: MIC, microdilution broth method
One experiment relates to PA01. Format: cell-based, Pseudomonas aeruginosa. As to conditions: for MIC, PA01: ESKAPE panel, Gram-negative.
For another experiment, the system named is VRE12201. Format: cell-based, Enterococcus faecalis. As to conditions: for MIC, VRE12201: ESKAPE panel, Gram-positive.
The subject of a further experiment is VSE775. Format: cell-based, Enterococcus faecalis. Also noted: MIC, VSE775: unit not given beside the values. To be noted: for MIC, VSE775: ESKAPE panel, Gram-positive.
For a further experiment, the system named is Ab17978. Format: cell-based. As to conditions: for MIC, Ab17978: ESKAPE panel, Gram-negative.
A further experiment deals with MSSA9144. Format: cell-based, Staphylococcus aureus. As to conditions: for MIC, MSSA9144: ESKAPE panel, Gram-positive.
The subject of the next experiment is EMRSA16. Format: cell-based, Staphylococcus aureus. As to conditions: for MIC, EMRSA16: ESKAPE panel, Gram-positive.
The next experiment has as its system AYE. Format: cell-based, Acinetobacter baumannii. To be noted: AYE; Normal (no PMBN); in µg/mL.
Another experiment deals with M6. Format: cell-based. As to conditions: for MIC, M6: ESKAPE panel, Gram-negative.
For another experiment, the system named is EMRSA15. Format: cell-based, Staphylococcus aureus. As to conditions: for MIC, EMRSA15: ESKAPE panel, Gram-positive.
The next experiment has as its system VRE12204. Format: cell-based, Enterococcus faecium. As to conditions: in µg/mL; for MIC, VRE12204: ESKAPE panel, Gram-positive.
The subject of the next experiment is KP13368. Format: cell-based. As to conditions: for MIC, KP13368: ESKAPE panel, Gram-negative.
The next experiment deals with EC12923. Format: cell-based. To be noted: for MIC, EC12923: ESKAPE panel, Gram-negative, in µg/mL.
The mark [1] stands for this setting: Ab17978, Normal (no PMBN), in µg/mL.

For `O=C(O)c1cn(C2CC2)c2cc(N3CCN(Cc4cccc5c4OCO5)CC3)c(F)cc2c1=O` [ML-77-032], the MIC in the experiment with PA01 (PA01, Normal (no PMBN), in µg/mL) is 16; against VRE12201 (VRE12201, in µg/mL) it was 1; in the experiment with VSE775 (VSE775, in µg/mL) it was 2; in the experiment with Ab17978 (setting [1]), 0.25; in the experiment on MSSA9144 (MSSA9144, in µg/mL), 0.25-1; against EMRSA16 (EMRSA16, in µg/mL) it was 64. Also, the MIC in the experiment with AYE amounted to 64; with M6 (M6, Normal (no PMBN), in µg/mL), 2.

As to `O=C(O)c1cn(C2CC2)c2cc(N3CCN(Cc4ccc(CO)cc4)CC3)c(F)cc2c1=O` [ML-77-147], the MIC in the experiment on VRE12201 (VRE12201, in µg/mL) is 0.5; in the experiment on EMRSA15 (EMRSA15, in µg/mL), 8; against VSE775 (VSE775, in µg/mL), 1; in the experiment on Ab17978 (setting [1]), 0.25-0.5; in the experiment on MSSA9144 (MSSA9144, in µg/mL), below 0.12; against EMRSA16 (EMRSA16, in µg/mL), 8. The MIC was 16-32 in the experiment with AYE and 0.5-1 against M6 (M6, Normal (no PMBN), in µg/mL).

On to `C[C@H]1COc2c(N3CCN(c4ncc(F)cn4)CC3)c(F)cc3c(=O)c(C(=O)O)cn1c23` [ML-83-010], for which the “MIC, PA01” value in the experiment with PA01 (in µg/mL) amounted to 64. For the same compound, the MIC was 64 µg/mL (≈ 144 µM) with PA01 (Pseudomonas aeruginosa (PA01), Gram-Negative, read-out: MIC); at most 0.125 µg/mL in the experiment on VRE12201 (Enterococcus faecalis, Enterococcus (VRE12201), Gram-Positive, read-out: MIC); 2 µg/mL (≈ 4.51 µM) in the experiment with EMRSA15 (Staphylococcus aureus, Staphylococcus aureus (EMRSA15), Gram-Positive (Table 14), read-out: MIC); 32 µg/mL (≈ 72.2 µM) with KP13368 (Klebsiella pneumoniae (KP13368), Gram-Negative, read-out: MIC); 0.5 µg/mL (≈ 1.13 µM) with VSE775 (Enterococcus faecalis, Enterococcus (VRE775), Gram-Positive, read-out: MIC); 2 µg/mL (≈ 4.51 µM) in the experiment on Ab17978 (Acinetobacter baumannii (AB17978), Gram-Negative, read-out: MIC). Also, the MIC was at most 0.125 µg/mL in the experiment with MSSA9144 (Staphylococcus aureus (MSSA9144), Gram-Positive, read-out: MIC); 2 µg/mL (≈ 4.51 µM) with EMRSA16 (Staphylococcus aureus (EMRSA16), Gram-Positive (Table 14), read-out: MIC); 2 µg/mL (≈ 4.51 µM) with EC12923 (Escherichia coli (EC12923), Gram-Negative, read-out: MIC); 4 µg/mL (≈ 9.02 µM) in the experiment with M6 (Klebsiella pneumoniae (M6), Gram-Negative, read-out: MIC). For the same compound, the “MIC, VRE12204” value against VRE12204 is on record as 1-4. Besides, the “MIC, EMRSA15” value against EMRSA15 (in µg/mL) came out at 2. In addition, the MIC, KP13368 against KP13368 was determined as 32 µg/mL (≈ 72.2 µM). The “MIC, VSE775” value against VSE775 was < 0.125 - 0.5. Besides, the “MIC, Ab17978” value against Ab17978 (in µg/mL) amounted to 2. Moreover, the “MIC, EMRSA16” value against EMRSA16 (in µg/mL) is 2. The “MIC, EC12923” value in the experiment on EC12923 was determined as 2. The “MIC, M6” value against M6 (in µg/mL) is 4.

Consider `C[C@H]1COc2c(N3CCC(N4CCN(C)CC4)C3)c(F)cc3c(=O)c(C(=O)O)cn1c23` (stereo partly drawn) [KSN-L31, (3S)-9-fluoro-3-methyl-10-(3-(4-methylpiperazin-1-yl)pyrrolidin-1-yl)-7-oxo-2,3-dihydro-7H-[1,4]oxazino[2,3,4-ij]quinoline-6-carboxylic acid], for which, in the experiment with PA01 (in µg/mL), the “MIC, PA01” value came to 64. Besides, the “MIC, VRE12204” value against VRE12204 came to 8. The “MIC, VRE12201” value with VRE12201 (in µg/mL) came to 2. Besides, the “MIC, EMRSA15” value against EMRSA15 (in µg/mL) came out at 64. For the same compound, the MIC, KP13368 against KP13368 was found to be 64 µg/mL (≈ 149 µM). Besides, the “MIC, VSE775” value in the experiment with VSE775 is given as 4. The “MIC, Ab17978” value against Ab17978 (in µg/mL) is reported as 4. For the same compound, the “MIC, MSSA9144” value against MSSA9144 (in µg/mL) is listed as 0.5-1. The “MIC, EMRSA16” value in the experiment on EMRSA16 (in µg/mL) came out at 64. Besides, the “MIC, EC12923” value in the experiment on EC12923 was 2. Besides, in the experiment on M6 (in µg/mL), the “MIC, M6” value was 4.

Regarding `O=C(O)c1cn(C2CC2)c2cc(N3CCN(Cc4ccccc4)CC3)c(F)cc2c1=O` [ML-77-046], the MIC against VRE12204 (VRE12204) is 4-8; in the experiment with VRE12201 (VRE12201, in µg/mL) it was 1-2; in the experiment with VSE775 (VSE775, in µg/mL), 2-4; in the experiment on Ab17978 (setting [1]) it was 0.25; with MSSA9144 (MSSA9144, in µg/mL), 0.12-0.25; in the experiment with EMRSA16 (EMRSA16, in µg/mL), 32. The MIC against AYE is on record as 64-128; in the experiment with M6 (M6, Normal (no PMBN), in µg/mL), 2.

For `C[C@H]1COc2c(N3CCC(N4CCOCC4)C3)c(F)cc3c(=O)c(C(=O)O)cn1c23` (stereo partly drawn) [KSN-L33, (3S)-9-fluoro-3-methyl-10-(3-morpholinopyrrolidin-1-yl)-7-oxo-2,3-dihydro-7H-[1,4]oxazino[2,3,4-ij]quinoline-6-carboxylic acid], in the experiment on PA01 (in µg/mL), the “MIC, PA01” value is recorded as 32-64. Besides, in the experiment with VRE12204, the “MIC, VRE12204” value is listed as 4. Also, in the experiment on VRE12201 (in µg/mL), the “MIC, VRE12201” value was found to be 2. For the same compound, the “MIC, EMRSA15” value against EMRSA15 (in µg/mL) worked out at 16. The same compound displayed an MIC, KP13368 in the experiment with KP13368 of 32 µg/mL (≈ 76.7 µM). In addition, in the experiment with VSE775, the “MIC, VSE775” value was determined as 4. Besides, the “MIC, Ab17978” value in the experiment on Ab17978 (in µg/mL) amounted to 2. Further, the “MIC, MSSA9144” value with MSSA9144 (in µg/mL) stood at 0.25. For the same compound, in the experiment with EMRSA16 (in µg/mL), the “MIC, EMRSA16” value was 16-32. The “MIC, EC12923” value against EC12923 amounted to 2. For the same compound, the “MIC, M6” value against M6 (in µg/mL) is on record as 8.
